Source: patent US9040527B2, “Pyrimidinediamine kinase inhibitors” (Rigel Pharmaceuticals, Inc., priority 2008, dated 2015)

molecular target: PLK1 (Homo sapiens, UniProt P53350); assay: Cellular PLK1 assay in K562 cells overexpressing CDC25C; assay type: cell-based; set-up: endogenous in cells; host or cells: K562 (human chronic myelogenous leukemia) overexpressing CDC25C, nocodazole-arrested; settings: nocodazole arrested, cdc25c p-Ser198 readout
Experimental: Inhibition of PLK1 was measured by quantifying phosphorylation of PLK1 substrates using chemiluminescent and fluorogenic probes. The protocols for these assays are provided below.
1. Culturing of K562 Cells
Human chronic myelogenous leukemia K562 cells (American Tissue Culture Collection) overexpressing CDC25C, were grown in Growth Medium having the following composition: Iscove Dulbecco's Modified Eagle's Medium (“Iscove DMEM”, Mediatech/Cellgro, Cat. #10-013-CV), 10% Fetal Bovine Serum (“FBS”, SAFC Biosciences, Cat. #12106-500M), and 1% penicillin/streptomycin (“pen-strep”, Mediatech/Cellgro, Cat. #30-002-CI). The cells were plated in 96 well round bottom tissue culture plates (Fisher, Costar* Cell Culture plates, Cat. #07-200-95) at 100,000 cells per 50 μL of Growth Medium per well. Nocodazole (Sigma, Cat. # M1404) was added to the growth media to arrest the cells in the G2 or M phase, at 333 nM concentration. The cells were incubated with nocodazole for 18 hours at 37° C. prior to addition of tested compounds.
2. Treatment of Cells with the Tested Compounds
Solutions of tested compounds in DMSO at different concentrations were prepared using serial dilutions. Each compound was tested at 8 concentration points, 10 μM, 3.3 μM, 1.11 μM, 0.37 μM, 0.12 μM, 0.04 μM, 0.014 μM, 0.005 μM, duplicate replicates.
Two controls were performed: “DMSO alone” control in which nocodazole and DMSO were present but no compounds were added, and “nocodazole alone” control, in which only nocodazole was present, but neither DMSO nor compounds were added.
The solutions of compounds were prepared by diluting 10 mM compound 1:1 in DMSO (5 μL 10 mM compound and 5 μL DMSO), followed by 1:3 serial dilutions of compound in DMSO performed by diluting 3 μL of higher concentration compound solution serially into 6 μL DMSO to give 3-fold dilutions. Next, 3 μL of each compound solution at each concentration was transferred to 750 μL of Growth Medium. In “DMSO alone” control 3 μL of DMSO alone was added to 750 μL of Growth Medium.
After the diluted compounds were mixed well in the Growth Medium, 50 μL of each compound solution in DMSO/Growth Medium was transferred to each well of the 96-plate containing cells in 50 μL of Growth Medium/Nocodazole.
The cells and compounds were incubated for 120 minutes at 37° C., in an atmosphere containing 5% CO2.
3. Fixation and Permeabilization of the Cells
After the cells were incubated with compounds, the cells were spun down at 1,000 rpm for 5 minutes at 4° C. and supernatants were removed by flicking the plates. Cells were then washed with 200 μl of ice cold PBS, spun down again and supernatants removed. Cells were then fixed and permeabilized by addition of 100 μL/well of Fixation and Permeabilization Solution (1× buffer provided in BD Biosciences Cytofix/Cytoperm™ Fixation/Permeabilization kit, Cat. #554714) and incubation for 20 minutes at room temperature. The fixative was then removed by centrifugation (5 minutes at 2,000 rpm), and plates were flicked to remove the fixative and washed twice, each time with 200 μL/well BD Perm/Wash buffer (10× concentrate provided in BD Biosciences Cytofix/Cytoperm™ Fixation/Permeabilization kit, Cat. #554714, 1× buffer prepared by dilution in distilled H2O).
Cells were spun down at 1,000 rpm for 5 minutes at 4° C. Supernatants were removed by flicking the plates. A solution of a primary antibody specific for cdc25cp-Ser198 was prepared by diluting Rabbit cdc25c (Ser198) antibody (Cell Signaling, #9529L) 1:50 in a Fluorescence Activated Cell Sorting (“FACS”) Buffer (2% FBS in PBS). The cell pellets were resuspended in 50 μL of the primary antibody solution. 50 μL of FACS buffer was added to unstained controls. Staining was allowed to proceed overnight at room temperature.
The plates were then washed by addition of 200 μL of FACS Buffer to each well, were centrifuged and the supernatant was removed. […]

Sequence of PLK1 (P53350 whole entry): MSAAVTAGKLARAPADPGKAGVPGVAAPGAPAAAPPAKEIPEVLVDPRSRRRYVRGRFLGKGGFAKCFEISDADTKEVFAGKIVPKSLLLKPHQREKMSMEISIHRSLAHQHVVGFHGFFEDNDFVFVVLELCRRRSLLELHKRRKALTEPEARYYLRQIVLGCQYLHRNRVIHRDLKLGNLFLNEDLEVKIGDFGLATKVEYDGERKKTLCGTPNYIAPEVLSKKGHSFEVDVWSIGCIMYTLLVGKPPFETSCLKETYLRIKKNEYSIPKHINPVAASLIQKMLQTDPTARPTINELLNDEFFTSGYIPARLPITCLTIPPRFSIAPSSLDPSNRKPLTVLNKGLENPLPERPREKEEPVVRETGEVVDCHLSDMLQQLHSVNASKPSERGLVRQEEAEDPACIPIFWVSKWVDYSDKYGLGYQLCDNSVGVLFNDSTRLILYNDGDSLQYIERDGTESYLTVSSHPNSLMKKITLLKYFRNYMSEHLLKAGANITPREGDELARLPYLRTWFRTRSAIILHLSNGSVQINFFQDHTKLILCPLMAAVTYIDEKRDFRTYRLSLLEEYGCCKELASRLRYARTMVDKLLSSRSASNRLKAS

Row | Structure (SMILES) | IC50 [µM]
1 | Cc1cnc(Nc2ccc(N3CCN(C)CC3)cc2)nc1Nc1ccc2c(n1)NC(=O)C(C)(C)O2 [compound 88, 2,2-dimethyl-6-(5-methyl-2-(4-(4-methylpiperazin-1-yl)phenylamino)pyrimidin-4-ylamino)-2H-pyrido[3,2-b][1,4]oxazin-3(4H)-one] | ≥ 10
2 | CCN1CCN(c2ccc(Nc3ncc(C)c(Nc4ccc5c(n4)N(C)C(=O)CO5)n3)cc2)CC1 [compound 91, 6-(2-(4-(4-ethylpiperazin-1-yl)phenylamino)-5-methylpyrimidin-4-ylamino)-4-methyl-2H-pyrido[3,2-b][1,4]oxazin-3(4H)-one] | ≥ 10
3 | CCN1CCN(c2ccc(Nc3ncc(C)c(Nc4ccc5c(n4)NC(=O)C(C)(C)O5)n3)cc2)CC1 [compound 92, 6-(2-(4-(4-ethylpiperazin-1-yl)phenylamino)-5-methylpyrimidin-4-ylamino)-2,2-dimethyl-2H-pyrido[3,2-b][1,4]oxazin-3(4H)-one] | ≥ 10
4 | CCN1CCN(c2ccc(Nc3ncc(C)c(Nc4ccc5c(n4)N(C)C(=O)C(C)(C)O5)n3)cc2)CC1 [compound 94, 6-(2-(4-(4-ethylpiperazin-1-yl)phenylamino)-5-methylpyrimidin-4-ylamino)-2,2,4-trimethyl-2H-pyrido[3,2-b][1,4]oxazin-3(4H)-one] | ≥ 10

Next, values leading:

Row | IC50 [µM] | Structure (SMILES)
5 | ≥ 10 | Cc1cc(Nc2ncc(C)c(Nc3ccc4c(n3)N(C)C(=O)C(C)(C)O4)n2)ccc1N1CCN(C)CC1 [compound 98, 2,2,4-trimethyl-6-(5-methyl-2-(3-methyl-4-(4-methylpiperazin-1-yl)phenylamino)pyrimidin-4-ylamino)-2H-pyrido[3,2-b][1,4]oxazin-3(4H)-one]
6 | ≥ 10 | CCOC(=O)N1CCN(c2ccc(Nc3ncc(F)c(Nc4ccc5c(n4)NCCO5)n3)cc2)CC1 [compound 163, ethyl 4-(4-(4-(3,4-dihydro-2H-pyrido[3,2-b][1,4]oxazin-6-ylamino)-5-fluoropyrimidin-2-ylamino)phenyl)piperazine-1-carboxylate]
7 | ≥ 10 | CC(=O)N1CCN(c2cccc(Nc3ncc(F)c(Nc4ccc5c(n4)NCCO5)n3)c2)CC1 [compound 164, 1-(4-(3-(4-(3,4-dihydro-2H-pyrido[3,2-b][1,4]oxazin-6-ylamino)-5-fluoropyrimidin-2-ylamino)phenyl)piperazin-1-yl)ethanone]
8 | ≥ 10 | CCOC(=O)N1CCN(c2cccc(Nc3ncc(F)c(Nc4ccc5c(n4)NCCO5)n3)c2)CC1 [compound 165, ethyl 4-(3-(4-(3,4-dihydro-2H-pyrido[3,2-b][1,4]oxazin-6-ylamino)-5-fluoropyrimidin-2-ylamino)phenyl)piperazine-1-carboxylate]
9 | ≥ 10 | CN1CCN(c2ccc(Nc3ncc(F)c(Nc4ccc5c(n4)NCCO5)n3)cc2)CC1 [compound 166, N4-(3,4-dihydro-2H-pyrido[3,2-b][1,4]oxazin-6-yl)-5-fluoro-N2-(4-(4-methylpiperazin-1-yl)phenyl)pyrimidine-2,4-diamine]
10 | ≥ 10 | Cc1cnc(Nc2ccc(N3CCN(C)CC3)nc2)nc1Nc1ccc2c(c1)N(C)C(=O)C(C)(C)O2 [compound 202, 2,2,4-trimethyl-6-(5-methyl-2-(6-(4-methylpiperazin-1-yl)pyridin-3-ylamino)pyrimidin-4-ylamino)-2H-benzo[b][1,4]oxazin-3(4H)-one]
